In article PMC3575848 (Nucleic Acids Research, 2012):

How the values were obtained:
Type in all cases: binding
HsaDRS2 [1] = target: T1, HsaDRS2 (Homo sapiens, UniProt Q6PI48); test: thermal shift by dynamic light scattering and differential scanning fluorimetry; settings: protein 3 mg/ml, temperature gradient
T1 sequence (Q6PI48 41-645): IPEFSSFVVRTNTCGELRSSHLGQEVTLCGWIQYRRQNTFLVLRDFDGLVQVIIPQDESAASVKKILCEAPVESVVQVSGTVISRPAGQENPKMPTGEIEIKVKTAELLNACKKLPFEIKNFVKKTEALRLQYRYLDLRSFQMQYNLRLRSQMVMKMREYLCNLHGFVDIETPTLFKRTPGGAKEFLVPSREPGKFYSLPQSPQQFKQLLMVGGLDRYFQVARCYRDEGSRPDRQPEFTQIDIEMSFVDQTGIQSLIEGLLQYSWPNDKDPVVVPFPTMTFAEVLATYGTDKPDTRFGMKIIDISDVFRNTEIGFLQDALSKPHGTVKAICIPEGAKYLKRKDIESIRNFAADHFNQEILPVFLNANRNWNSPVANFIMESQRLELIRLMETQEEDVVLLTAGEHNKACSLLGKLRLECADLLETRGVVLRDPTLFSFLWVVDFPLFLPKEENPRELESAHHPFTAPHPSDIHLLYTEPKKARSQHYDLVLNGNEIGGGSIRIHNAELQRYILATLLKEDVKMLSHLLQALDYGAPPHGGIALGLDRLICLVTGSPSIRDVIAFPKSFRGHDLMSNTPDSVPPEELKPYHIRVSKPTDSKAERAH

HsaDRS2 [2] = target: T1, HsaDRS2; test: isothermal titration calorimetry
EcoDRS [3] = target: T2, EcoDRS (Escherichia coli, UniProt P21889); test: thermal shift by dynamic light scattering; settings: protein 3 mg/ml, temperature gradient
T2 sequence (P21889 whole entry): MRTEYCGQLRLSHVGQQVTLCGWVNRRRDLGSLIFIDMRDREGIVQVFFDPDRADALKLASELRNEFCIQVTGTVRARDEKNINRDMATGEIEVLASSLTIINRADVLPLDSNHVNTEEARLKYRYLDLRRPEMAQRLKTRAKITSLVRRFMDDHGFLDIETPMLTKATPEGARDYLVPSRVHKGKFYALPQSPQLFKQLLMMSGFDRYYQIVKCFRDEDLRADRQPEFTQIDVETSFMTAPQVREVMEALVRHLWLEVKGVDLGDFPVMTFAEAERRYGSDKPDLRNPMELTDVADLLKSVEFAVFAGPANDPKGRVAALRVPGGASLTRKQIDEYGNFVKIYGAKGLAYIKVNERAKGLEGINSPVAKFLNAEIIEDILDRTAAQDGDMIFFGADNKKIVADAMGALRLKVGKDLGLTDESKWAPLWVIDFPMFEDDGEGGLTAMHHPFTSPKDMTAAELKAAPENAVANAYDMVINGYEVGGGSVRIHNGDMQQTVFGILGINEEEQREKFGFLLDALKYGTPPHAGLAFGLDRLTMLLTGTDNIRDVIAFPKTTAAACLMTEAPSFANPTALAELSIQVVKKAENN

EcoDRS [4] = target: T2, EcoDRS; test: isothermal titration calorimetry

Kd (HsaDRS2 [2]): 17.5 ± 12 nM | Kd (EcoDRS [4]): 2.95 ± 1.34 nM
SMILES: Nc1ncnc2c1ncn2[C@@H]1O[C@H](COS(=O)(=O)NC(=O)[C@@H](N)CC(=O)O)[C@@H](O)[C@H]1O [Asp–AMS, 5′-O-[N-(L-aspartyl)sulfamoyl] adenosine]
Tm (HsaDRS2 [1]): Significant stabilization was observed in the presence of Asp–AMS | Tm (EcoDRS [3]): only Asp–AMS (dashed grey line) influences the thermostability of the two enzymes positively
